Measurements as given in ChEMBL document CHEMBL1275577, “Study of the in vitro activities of rifaximin and comparator agents against 536 anaerobic intestinal bacteria from the perspective of potential utility in pathology involving bowel flora” (Antimicrob Agents Chemother, 2009).

Experiments:
Type in all cases: functional
Desulfovibrio piger = test: Antimicrobial activity against Desulfovibrio piger by Wadsworth agar dilution method in presence of beta-lactamase inhibitor Sulbactam
[1] = tested on: Limosilactobacillus fermentum; test: Antimicrobial activity against Lactobacillus fermentum by Wadsworth agar dilution method in presence of beta-lactamase inhibitor Sulbactam
[2] = tested on: Bifidobacterium pseudolongum; test: Antimicrobial activity against Bifidobacterium pseudolongum by Wadsworth agar dilution method in presence of beta-lactamase inhibitor Sulbactam
Holdemania filiformis = test: Antimicrobial activity against Holdemania filiformis by Wadsworth agar dilution method in presence of beta-lactamase inhibitor Sulbactam
Eubacterium biforme = test: Antimicrobial activity against Eubacterium biforme by Wadsworth agar dilution method in presence of beta-lactamase inhibitor Sulbactam; conditions: Holdemanella biformis
Clostridium bolteae = test: Antimicrobial activity against Clostridium bolteae by Wadsworth agar dilution method in presence of beta-lactamase inhibitor Sulbactam; conditions: Enterocloster bolteae
Bacteroides ovatus = test: Antimicrobial activity against Bacteroides ovatus by Wadsworth agar dilution method in presence of beta-lactamase inhibitor Sulbactam
Eubacterium callanderi = test: Antimicrobial activity against Eubacterium callanderi by Wadsworth agar dilution method in presence of beta-lactamase inhibitor Sulbactam
Clostridium beijerinckii = test: Antimicrobial activity against Clostridium beijerinckii by Wadsworth agar dilution method in presence of beta-lactamase inhibitor Sulbactam
Bifidobacterium breve = test: Antimicrobial activity against Bifidobacterium breve by Wadsworth agar dilution method in presence of beta-lactamase inhibitor Sulbactam
Schaalia meyeri = test: Antimicrobial activity against Actinomyces meyeri by Wadsworth agar dilution method in presence of beta-lactamase inhibitor Sulbactam
Ruminococcus lactaris = test: Antimicrobial activity against Ruminococcus lactaris by Wadsworth agar dilution method in presence of beta-lactamase inhibitor Sulbactam
Flavonifractor plautii = test: Antimicrobial activity against Clostridium orbiscindens by Wadsworth agar dilution method in presence of beta-lactamase inhibitor Sulbactam
Clostridium cadaveris = test: Antimicrobial activity against Clostridium cadaveris by Wadsworth agar dilution method in presence of beta-lactamase inhibitor Sulbactam
Clostridium bartlettii = test: Antimicrobial activity against Clostridium bartlettii by Wadsworth agar dilution method in presence of beta-lactamase inhibitor Sulbactam; conditions: Intestinibacter bartlettii
Clostridium spiroforme = test: Antimicrobial activity against Clostridium spiroforme by Wadsworth agar dilution method in presence of beta-lactamase inhibitor Sulbactam; conditions: Thomasclavelia spiroformis
[3] = tested on: Clostridium acetobutylicum; test: Antimicrobial activity against Clostridium acetobutylicum by Wadsworth agar dilution method in presence of beta-lactamase inhibitor Sulbactam
Anaerococcus prevotii = test: Antimicrobial activity against Anaerococcus prevotii by Wadsworth agar dilution method in presence of beta-lactamase inhibitor Sulbactam
Clostridium disporicum = test: Antimicrobial activity against Clostridium disporicum by Wadsworth agar dilution method in presence of beta-lactamase inhibitor Sulbactam
Blautia luti = test: Antimicrobial activity against Ruminococcus luti by Wadsworth agar dilution method in presence of beta-lactamase inhibitor Sulbactam
Desulfovibrio vulgaris = test: Antimicrobial activity against Desulfovibrio vulgaris by Wadsworth agar dilution method in presence of beta-lactamase inhibitor Sulbactam; conditions: Nitratidesulfovibrio vulgaris
Clostridium fallax = test: Antimicrobial activity against Clostridium fallax by Wadsworth agar dilution method in presence of beta-lactamase inhibitor Sulbactam
[4] = tested on: Parabacteroides goldsteinii; test: Antimicrobial activity against Parabacteroides goldsteinii by Wadsworth agar dilution method in presence of beta-lactamase inhibitor Sulbactam
Prevotella intermedia = test: Antimicrobial activity against Prevotella intermedia by Wadsworth agar dilution method in presence of beta-lactamase inhibitor Sulbactam
[5] = tested on: Ruminococcus flavefaciens; test: Antimicrobial activity against Ruminococcus flavefaciens by Wadsworth agar dilution method in presence of beta-lactamase inhibitor Sulbactam
Bilophila wadsworthia = test: Antimicrobial activity against Bilophila wadsworthia by Wadsworth agar dilution method in presence of 1% pyruvic acid and beta-lactamase inhibitor Sulbactam
Porphyromonas somerae = test: Antimicrobial activity against Porphyromonas somerae by Wadsworth agar dilution method in presence of beta-lactamase inhibitor Sulbactam
Porphyromonas uenonis = test: Antimicrobial activity against Porphyromonas uenonis by Wadsworth agar dilution method in presence of beta-lactamase inhibitor Sulbactam
[6] = tested on: Pseudoramibacter alactolyticus; test: Antimicrobial activity against Eubacterium alactolyticum by Wadsworth agar dilution method in presence of beta-lactamase inhibitor Sulbactam
Ruminococcus gnavus = test: Antimicrobial activity against Ruminococcus gnavus by Wadsworth agar dilution method in presence of beta-lactamase inhibitor Sulbactam; conditions: Mediterraneibacter gnavus
Anaerococcus tetradius = test: Antimicrobial activity against Anaerococcus tetradius by Wadsworth agar dilution method in presence of beta-lactamase inhibitor Sulbactam
Bifidobacterium dentium = test: Antimicrobial activity against Bifidobacterium dentium by Wadsworth agar dilution method in presence of beta-lactamase inhibitor Sulbactam
Parvimonas micra = test: Antimicrobial activity against Peptostreptococcus micros by Wadsworth agar dilution method in presence of beta-lactamase inhibitor Sulbactam

Q: For `CC1(C)S[C@@H]2[C@H](NC(=O)[C@H](N)c3ccccc3)C(=O)N2[C@H]1C(=O)O` [AMPICILLIN], which MIC50 (Desulfovibrio piger) is on record?
A: The MIC50 was 4 mg/L.

Q: And the MIC90 (Desulfovibrio piger)?
A: The MIC90 was 32 mg/L.

Q: What about the MIC [1] of the same molecule?
A: The MIC was 0.25 mg/L.

Q: What about the MIC50 [1] of the same molecule?
A: The MIC50 was 0.25 mg/L.

Q: And the MIC90 [1]?
A: The MIC90 was 2 mg/L.

Q: What about the MIC [2] of the same molecule?
A: The MIC was 0.25 mg/L.

Q: And the MIC50 [2]?
A: The MIC50 was 0.25 mg/L.

Q: And the MIC90 [2]?
A: Its MIC90 is 2 mg/L.

Q: And the MIC (Holdemania filiformis)?
A: The MIC was 0.25 mg/L.

Q: And the MIC50 (Holdemania filiformis)?
A: Its MIC50 is 0.25 mg/L.

Q: What about the MIC90 (Holdemania filiformis) of the same molecule?
A: The MIC90 was 2 mg/L.

Q: What about the MIC (Eubacterium biforme) of the same molecule?
A: Its MIC is 0.25 mg/L.

Q: And the MIC50 (Eubacterium biforme)?
A: The MIC50 was 0.25 mg/L.

Q: What about the MIC90 (Eubacterium biforme) of the same molecule?
A: Its MIC90 is 2 mg/L.

Q: What about the MIC (Clostridium bolteae) of the same molecule?
A: The MIC was 0.25 mg/L.

Q: What about the MIC50 (Clostridium bolteae) of the same molecule?
A: Its MIC50 is 0.25 mg/L.

Q: And the MIC90 (Clostridium bolteae)?
A: Its MIC90 is 1 mg/L.

Q: And the MIC50 (Bacteroides ovatus)?
A: The MIC50 was 8 mg/L.

Q: And the MIC90 (Bacteroides ovatus)?
A: Its MIC90 is 32 mg/L.

Q: What about the MIC (Eubacterium callanderi) of the same molecule?
A: Its MIC is 0.25 mg/L.

Q: What about the MIC50 (Eubacterium callanderi) of the same molecule?
A: Its MIC50 is 0.25 mg/L.

Q: What about the MIC90 (Eubacterium callanderi) of the same molecule?
A: Its MIC90 is 2 mg/L.

Q: And the MIC (Clostridium beijerinckii)?
A: Its MIC is 0.25 mg/L.

Q: What about the MIC50 (Clostridium beijerinckii) of the same molecule?
A: Its MIC50 is 0.25 mg/L.

Q: What about the MIC90 (Clostridium beijerinckii) of the same molecule?
A: The MIC90 was 1 mg/L.

Q: What about the MIC (Bifidobacterium breve) of the same molecule?
A: Its MIC is 0.25 mg/L.

Q: What about the MIC50 (Bifidobacterium breve) of the same molecule?
A: The MIC50 was 0.25 mg/L.

Q: And the MIC90 (Bifidobacterium breve)?
A: The MIC90 was 2 mg/L.

Q: And the MIC (Schaalia meyeri)?
A: Its MIC is 0.25 mg/L.

Q: What about the MIC50 (Schaalia meyeri) of the same molecule?
A: Its MIC50 is 0.25 mg/L.

Q: And the MIC90 (Schaalia meyeri)?
A: The MIC90 was 2 mg/L.

Q: What about the MIC (Ruminococcus lactaris) of the same molecule?
A: Its MIC is 0.25 mg/L.

Q: And the MIC50 (Ruminococcus lactaris)?
A: The MIC50 was 0.25 mg/L.

Q: What about the MIC90 (Ruminococcus lactaris) of the same molecule?
A: The MIC90 was 2 mg/L.

Q: And the MIC (Flavonifractor plautii)?
A: Its MIC is 2 mg/L.

Q: And the MIC50 (Flavonifractor plautii)?
A: The MIC50 was 2 mg/L.

Q: What about the MIC90 (Flavonifractor plautii) of the same molecule?
A: Its MIC90 is 4 mg/L.

Q: What about the MIC (Clostridium cadaveris) of the same molecule?
A: The MIC was 0.25 mg/L.

Q: What about the MIC50 (Clostridium cadaveris) of the same molecule?
A: The MIC50 was 0.25 mg/L.

Q: What about the MIC90 (Clostridium cadaveris) of the same molecule?
A: The MIC90 was 1 mg/L.

Q: And the MIC (Clostridium bartlettii)?
A: Its MIC is 0.25 mg/L.

Q: What about the MIC50 (Clostridium bartlettii) of the same molecule?
A: The MIC50 was 0.25 mg/L.

Q: And the MIC90 (Clostridium bartlettii)?
A: Its MIC90 is 1 mg/L.

Q: What about the MIC (Clostridium spiroforme) of the same molecule?
A: The MIC was 0.25 mg/L.

Q: What about the MIC50 (Clostridium spiroforme) of the same molecule?
A: The MIC50 was 0.25 mg/L.

Q: And the MIC90 (Clostridium spiroforme)?
A: Its MIC90 is 1 mg/L.

Q: What about the MIC [3] of the same molecule?
A: The MIC was 0.25 mg/L.

Q: And the MIC50 [3]?
A: Its MIC50 is 0.25 mg/L.

Q: And the MIC90 [3]?
A: Its MIC90 is 1 mg/L.

Q: And the MIC (Anaerococcus prevotii)?
A: Its MIC is 0.25 mg/L.

Q: And the MIC50 (Anaerococcus prevotii)?
A: The MIC50 was 0.25 mg/L.

Q: What about the MIC90 (Anaerococcus prevotii) of the same molecule?
A: Its MIC90 is 2 mg/L.

Q: What about the MIC (Clostridium disporicum) of the same molecule?
A: Its MIC is 0.25 mg/L.

Q: What about the MIC50 (Clostridium disporicum) of the same molecule?
A: Its MIC50 is 0.25 mg/L.

Q: And the MIC90 (Clostridium disporicum)?
A: Its MIC90 is 1 mg/L.

Q: And the MIC (Blautia luti)?
A: Its MIC is 0.25 mg/L.

Q: And the MIC50 (Blautia luti)?
A: Its MIC50 is 0.25 mg/L.

Q: What about the MIC90 (Blautia luti) of the same molecule?
A: The MIC90 was 2 mg/L.

Q: What about the MIC50 (Desulfovibrio vulgaris) of the same molecule?
A: Its MIC50 is 4 mg/L.

Q: What about the MIC90 (Desulfovibrio vulgaris) of the same molecule?
A: Its MIC90 is 32 mg/L.

Q: What about the MIC (Clostridium fallax) of the same molecule?
A: Its MIC is 0.25 mg/L.

Q: And the MIC50 (Clostridium fallax)?
A: Its MIC50 is 0.25 mg/L.

Q: What about the MIC90 (Clostridium fallax) of the same molecule?
A: The MIC90 was 1 mg/L.

Q: And the MIC50 [4]?
A: Its MIC50 is 16 mg/L.

Q: And the MIC90 [4]?
A: The MIC90 was 32 mg/L.

Q: What about the MIC50 (Prevotella intermedia) of the same molecule?
A: Its MIC50 is 0.5 mg/L.

Q: What about the MIC90 (Prevotella intermedia) of the same molecule?
A: Its MIC90 is 4 mg/L.

Q: And the MIC [5]?
A: Its MIC is 0.25 mg/L.

Q: And the MIC50 [5]?
A: Its MIC50 is 0.25 mg/L.

Q: What about the MIC90 [5] of the same molecule?
A: The MIC90 was 2 mg/L.

Q: What about the MIC50 (Bilophila wadsworthia) of the same molecule?
A: The MIC50 was 2 mg/L.

Q: What about the MIC90 (Bilophila wadsworthia) of the same molecule?
A: The MIC90 was 16 mg/L.

Q: What about the MIC (Porphyromonas somerae) of the same molecule?
A: The MIC was 0.25 mg/L.

Q: What about the MIC50 (Porphyromonas somerae) of the same molecule?
A: Its MIC50 is 0.25 mg/L.

Q: What about the MIC90 (Porphyromonas somerae) of the same molecule?
A: Its MIC90 is 0.5 mg/L.

Q: What about the MIC (Porphyromonas uenonis) of the same molecule?
A: The MIC was 0.25 mg/L.

Q: What about the MIC50 (Porphyromonas uenonis) of the same molecule?
A: Its MIC50 is 0.25 mg/L.

Q: What about the MIC90 (Porphyromonas uenonis) of the same molecule?
A: Its MIC90 is 0.5 mg/L.

Q: And the MIC [6]?
A: The MIC was 0.25 mg/L.

Q: What about the MIC50 [6] of the same molecule?
A: The MIC50 was 0.25 mg/L.

Q: And the MIC90 [6]?
A: The MIC90 was 2 mg/L.

Q: What about the MIC (Ruminococcus gnavus) of the same molecule?
A: The MIC was 0.25 mg/L.

Q: What about the MIC50 (Ruminococcus gnavus) of the same molecule?
A: Its MIC50 is 0.25 mg/L.

Q: And the MIC90 (Ruminococcus gnavus)?
A: Its MIC90 is 2 mg/L.

Q: And the MIC (Anaerococcus tetradius)?
A: The MIC was 0.25 mg/L.

Q: And the MIC50 (Anaerococcus tetradius)?
A: Its MIC50 is 0.25 mg/L.

Q: What about the MIC90 (Anaerococcus tetradius) of the same molecule?
A: Its MIC90 is 2 mg/L.

Q: And the MIC (Bifidobacterium dentium)?
A: Its MIC is 0.25 mg/L.

Q: What about the MIC50 (Bifidobacterium dentium) of the same molecule?
A: The MIC50 was 0.25 mg/L.

Q: And the MIC90 (Bifidobacterium dentium)?
A: The MIC90 was 2 mg/L.

Q: And the MIC (Parvimonas micra)?
A: Its MIC is 0.25 mg/L.

Q: And the MIC50 (Parvimonas micra)?
A: The MIC50 was 0.25 mg/L.

Q: What about the MIC90 (Parvimonas micra) of the same molecule?
A: Its MIC90 is 2 mg/L.
